Data: ChEMBL document CHEMBL4831513, “Discovery of quinazoline derivatives as a novel class of potent and in vivo efficacious LSD1 inhibitors by drug repurposing” (Eur J Med Chem, 2021)

Target: Lysine-specific histone demethylase 1A (Homo sapiens, UniProt O60341)
Description: Inhibition of recombinant full length LSD1 (unknown origin) transfected in Escherichia coli BL21 (DE) using H3K4me2 as substrate by flourescence based analysis

| SMILES | IC50 [µM] |
| --- | --- |
| COCCOc1cc2ncnc(Oc3cccc(Cl)c3)c2cc1OCCOC | > 50 |
| C#Cc1cccc(Nc2ncnc3ccc(Br)cc23)c1 | > 50 |
| COCCOc1cc2ncnc(Sc3ccc(Cl)cc3)c2cc1OCCOC | > 50 |
| COCCOc1cc2ncnc(N3CCN(C(C)=O)CC3)c2cc1OCCOC | > 50 |
| COCCOc1cc2ncnc(Oc3ccc(OC)cc3)c2cc1OCCOC | > 50 |
| COCCOc1cc2ncnc(Sc3ccc(C)cc3)c2cc1OCCOC | > 50 |
| C#Cc1cccc(Nc2ncnc3cc(OC)c(OC)cc23)c1 | > 50 |
| COCCOc1cc2ncnc(Sc3nnnn3C)c2cc1OCCOC | > 50 |
| C#Cc1cccc(Nc2ncnc3cc(OCc4ccccc4)c(OC)cc23)c1 | > 50 |
| COCCOc1cc2ncnc(N3CCN(c4ccccc4F)CC3)c2cc1OCCOC | > 50 |
